Assay results: patent US20240174629A1 (OTCPHARM JSC, priority 2021, published 2024)
Converted amounts (≈) assume the structure as drawn. Counter-ions that a name gives are not always drawn. Like-named read-outs stand apart in the source and are kept apart here.

Tests used:
[1] = Cytotoxicity, microtetrazolium test (MTT); settings: dog, MDCK cells, CC50 (MDCK), mean ±SD
SARS-CoV-2 coronavirus = assay: Activity against SARS-CoV-2 coronavirus on U2-OS ACE2 cells (S-Fuse, GFP signal); type: cell-based; settings: Severe acute respiratory syndrome coronavirus 2, U2OS; SARS-CoV-2, U2-OS ACE2 cells, MOI 0.1, 20 hours
U2-OS ACE2 cells = assay: Cytotoxicity on U2-OS ACE2 cells (Hoechst signal); settings: 20 hours
[2] = Acute oral toxicity, fixed dose method (OECD 420); settings: for GHS hazard class: acute oral toxicity in mice, UN GHS classification; for Died / Survived: female BALB/c mice, intragastric
MDCK cells [3] = assay: Cytotoxicity, microtetrazolium test (MTT); settings: 48 h, mean ±SD
MDCK cells [4] = tested on: MDCK cells

Row | Molecule | CC50 at 48 h [1] | IC50 (SARS-CoV-2 coronavirus) | Cytotoxicity (U2-OS ACE2 cells) | GHS hazard class [2] | Died ([2]; 2000 mg/kg) | Survived ([2]; 2000 mg/kg) | melting point | other results
1 | CNC(=O)c1c(N(Cc2ccccc2)C(C)=O)sc2cc(O)ccc12 [Example 73, 2-[acetyl(benzyl)amino]-6-hydroxy-N-methyl-1-benzothiophene-3-carboxamide] | > 300 µg/mL | 23 µM | Non-toxic up to 2500 μM | 5 | 0 | 4 | – | –
2 | Pentandioic acid imidazolylethanamide [Ingavirin, reference compound] | – | – | – | – | – | – | – | CC50 (MDCK) (MDCK cells [3]): 300 ± 12 µg/mL
3 | CSc1nc2nnc([N+](=O)[O-])c(=O)n2[nH]1 [Triazavirin, Methylthionitrooxodihydro-triazolotriazinide sodium] | – | – | – | – | – | – | – | CC50 (MDCK) (MDCK cells [4]): 298 ± 22 µg/mL
4 | COC(=O)c1c(N(Cc2ccccc2)C(C)=O)sc2c(CN(C)C)c(O)ccc12 [Example 61, Methyl 2-[acetyl(benzyl)amino-7-[(dimethylamino)methyl]-6-hydroxy-1-benzothiophene-3-carboxylate hydrochloride] | – | – | – | 4 | 1 | 1 | – | CC50 (MDCK) (MDCK cells [3]; hydrochloride): >300 µg/mL; Died ([2]; 300 mg/kg): 0; Survived ([2]; 300 mg/kg): 4
5 | COC(=O)c1c(N(Cc2ccc(F)cc2F)C(C)=O)sc2c(CN(C)C)c(O)ccc12 [Example 55] | > 300 µg/mL | 15.6 µM | Non-toxic up to 2500 μM | – | – | – | 118 to 122 °C | –
6 | COC(=O)c1c(N(Cc2ccccc2)C(C)=O)sc2cc(O)ccc12 [Example 4, Methyl 2-[acetyl(benzyl)amino]-6-hydroxy-1-benzothiophene-3-carboxylate] | 200 µg/mL (≈ 563 µM) | 10.6 µM | Non-toxic up to 2500 μM | – | – | – | 165 to 167 °C | –
